From patent US7678386B2, “Liposomes coated with selected antibodies that bind to aminophospholipids” (Board of Regents the University of Texas, priority 2002, dated 2010)

Experiments:
[1] = test system: vascular endothelium of tumors and normal organs; assay: Detection of anionic phospholipids in tumor bearing mice in vivo (9D2, annexin V); parameters: species or system mouse
Procedure: For localization studies, 2×10^7 L540 human Hodgkin's lymphoma cells or 1×10^7 cells of other tumor types were injected subcutaneously into the right flank of SCID mice (Charles River. Wilmington, Mass.). Tumors were allowed to reach a volume of 0.4-0.7 cm^3. A minimum of three animals per group was used. Studies were replicated at least three times.
Female nu/nu or SCID mice were purchased from Charles River. MDA-MB-231 human mammary carcinoma cells were implanted into the mammary fat pad according to a published protocol (Price. 1996). Briefly, mice were anesthetized and a 5-mm incision was made in the skin over the lateral thorax. The mammary pad was exposed to ensure the correct site for injection of 1×10^7 MDA-MB-231 cells re-suspended in 0.1 ml of saline.
To detect externally-positioned phospholipids, methods were performed essentially as previously described (Example V; Ran et al., 1998). Tumor-bearing SCID mice were injected intravenously with either 50 μg of 9D2 or biotinylated 9D2 antibody or 100 μg of biotinylated annexin V. Sixty min later mice were sacrificed and their blood circulation was exsanguinated and perfused with heparinized saline as previously described (Burrows et al., 1992). All major organs and tumor were harvested and snap-frozen for preparation of cryosections.
Sections were blocked with PBS containing 10% serum. To prevent loss of phospholipids during slide processing, detergents and organic solvents were omitted from blocking and washing buffers. Rat IgM was detected using goat anti rat IgM (μspecific)-HRP conjugate followed by development with carbazole or DAB (Fries et al., 1993). Biotinylated reagents were detected by streptavidin conjugated to HRP.
Tumor sections derived from mice injected with saline or rat IgM of irrelevant specificity served as negative controls. Additional controls consisted of incubating the slides in 1% Triton solution or in acetone for 10 min. These treatments extract phospholipids. No signal was detected under these conditions. The number of positive vessels per high power field was determined at magnification of ×100. At least 10 fields per section were examined and the average percentage of positive vessels was calculated. Staining of the sections by this method for the presence of 9D2 or annexin V detects cells having externalized anionic phospholipids that were accessible for binding by the reagents in vivo.
Structures with localized 9D2 antibody or annexin V were identified as blood vessels by morphological appearance on DAB-stained sections and by co-incident staining with the pan-endothelial cell marker, MECA 32 on serial sections of frozen tissues. Quantification on DAB-stained sections was done by counting vessels stained by MECA 32, 9D2 or annexin V in serial sections of a tumor. Six slides of each tumor type derived from 6 mice injected with 9D2 antibody, control rat IgM or annexin V were examined. At least 10 random fields per section (0.317 mm^2/field) were scored in blinded fashion by two independent observers. The mean numbers and standard errors of vessels stained by 9D2, annexin V or MECA 32 were calculated. The mean number of 9D2 or annexin V-positive vessels determined in each tumor type group was compared to the mean number of MECA 32-positive vessels in the same tumor group. The percentage of 9D2 or annexin V-positive vessels was calculated.

[2] = Reactivity with plastic-immobilized phospholipids (ELISA), panel; type: binding
Procedure: Phospholipids were dissolved in n-hexane to a concentration of 50 μg/ml. 100 μl of this solution was added to wells of 96-well microtiter plates. After evaporation of the solvent in air, the plates were blocked for 2 h with 10% fetal bovine serum diluted in DPBS containing 2 mM Ca^2+ (binding buffer).
9D2 antibody or annexin V were diluted in the binding buffer in the presence of 10% serum at an initial concentration of 6.7 nM. Serial two-fold dilutions were prepared in the plates (100 μl per well). The plates were then incubated for 2 h at room temperature. The plates were washed and the 9D2 and annexin V were detected by goat anti-rat IgM conjugated to HRP and rabbit anti-human annexin V followed by goat anti-rabbit IgG conjugated to HRP (all diluted 1:1000), respectively. Secondary reagents were detected by using chromogenic substrate OPD followed by reading plates at 490 nm using a microplate reader (Molecular Devices, Palo Alto, Calif.).
The specificity of the 9D2 antibody binding was validated by using control rat IgM of irrelevant specificity (Pharmingen, San Diego, Calif.). The specificity of annexin V binding to phospholipids, which is Ca^2+-dependent, was determined by diluting the reagent in the DPBS containing 5 mM EDTA. Additional negative controls consisted of washing the plates with the binding buffer containing 0.2% of a detergent Tween 20. This treatment extracts lipids, thus removing the phospholipid that was absorbed to plastic. Neither 9D2 antibody nor annexin V bound to detergent-washed plates.

[3] = Competition of 9D2 and annexin V for binding to immobilized PS; details: competitor in 10-fold molar excess
Procedure: Biotinylated 9D2 antibody and annexin V were prepared by incubating purified proteins with a 10-fold molar excess of N-hydroxysuccinimide biotin (Sigma, Mo.) for 1 h at room temperature. Free biotin was removed by dialysis against PBS. […] For competition studies, […] biotinylated proteins were premixed with a 10-fold molar excess of unmodified proteins. The mixtures were then added to PS-coated plates. Bound reagents were detected by streptavidin-HRP conjugate diluted 1:1000. The binding to PS of each reagent in the absence of a competitor was taken as the 100% value.

Annexin V: high affinity PS binding ligand; natural ligand of anionic phospholipids and PE
PS-positive vessels of MECA 32-stained vessels (mean ±SE) ([1]; B16 tumor): 21.3 ± 6.6% | PS-positive vessels of MECA 32-stained vessels (mean ±SE) ([1]; L540cy tumor): 16.7 ± 3.9% | PS-positive vessels of MECA 32-stained vessels (mean ±SE) ([1]; MDA-MB-231 tumor): 45.3 ± 5.6% | PS-positive vessels of MECA 32-stained vessels (mean ±SE) ([1]; MDA-MB-231 tumor, listed as annexin V): 40% | PS-positive vessels of MECA 32-stained vessels (mean ±SE) ([1]; NCI-H358 tumor): 15% | vascular localization in normal organs ([1]; nine of ten normal organs examined (kidney tubules non-specific)): No vascular localization | binding to anionic phospholipids in the presence of 5 mM EDTA [2]: abolished | binding to heparin, heparan sulfate or double or single stranded DNA [2]: did not bind detectably | order of strength of binding to phospholipids in ELISA ([2]; 10% serum): PI>PS=PE=PA=CL>PG | Binding (% Control) of biotinylated 9D2 to PS [3]: 93% | Binding (% Control) of biotinylated annexin V to PS [3]: 8%
